“And” between values parts separate entries of the source, which are not always exact repeats. Identical values can stand only once. The source made the active and inactive calls.
Tests used:
[1] = target: Cytochrome P450 2C19 (Homo sapiens, UniProt P33261); assay: qHTS Assay for Inhibitors and Substrates of Cytochrome P450 2C19. [Related pubchem assays: 410 ]; type: ADME; conditions: read-out: Potency
[2] = target: Cytochrome P450 2D6 (Homo sapiens, UniProt P10635); assay: qHTS Assay for Inhibitors and Substrates of Cytochrome P450 2D6. [Related pubchem assays: 410 ]; type: ADME; conditions: read-out: Potency
Sequence of Cytochrome P450 2D6 (P10635 whole entry): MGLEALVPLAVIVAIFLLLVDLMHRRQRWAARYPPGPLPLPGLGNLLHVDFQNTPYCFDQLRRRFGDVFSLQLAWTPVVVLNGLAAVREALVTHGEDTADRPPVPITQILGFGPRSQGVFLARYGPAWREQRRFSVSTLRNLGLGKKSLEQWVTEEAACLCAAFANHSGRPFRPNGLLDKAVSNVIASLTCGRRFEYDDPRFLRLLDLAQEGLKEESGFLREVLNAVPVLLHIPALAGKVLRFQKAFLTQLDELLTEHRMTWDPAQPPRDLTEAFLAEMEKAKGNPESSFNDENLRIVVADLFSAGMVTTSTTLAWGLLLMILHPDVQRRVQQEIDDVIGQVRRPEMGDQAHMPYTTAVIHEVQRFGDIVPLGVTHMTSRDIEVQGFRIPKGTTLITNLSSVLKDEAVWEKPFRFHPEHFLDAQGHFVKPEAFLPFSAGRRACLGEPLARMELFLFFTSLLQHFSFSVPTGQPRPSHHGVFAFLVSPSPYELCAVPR

[3] = target: Cytochrome P450 3A4 (Homo sapiens, UniProt P08684); conditions: Potency;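 further: confirmatory qHTS run detecting inhibitors and substrates of CYP3A4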
Sequence of Cytochrome P450 3A4 (P08684 whole entry): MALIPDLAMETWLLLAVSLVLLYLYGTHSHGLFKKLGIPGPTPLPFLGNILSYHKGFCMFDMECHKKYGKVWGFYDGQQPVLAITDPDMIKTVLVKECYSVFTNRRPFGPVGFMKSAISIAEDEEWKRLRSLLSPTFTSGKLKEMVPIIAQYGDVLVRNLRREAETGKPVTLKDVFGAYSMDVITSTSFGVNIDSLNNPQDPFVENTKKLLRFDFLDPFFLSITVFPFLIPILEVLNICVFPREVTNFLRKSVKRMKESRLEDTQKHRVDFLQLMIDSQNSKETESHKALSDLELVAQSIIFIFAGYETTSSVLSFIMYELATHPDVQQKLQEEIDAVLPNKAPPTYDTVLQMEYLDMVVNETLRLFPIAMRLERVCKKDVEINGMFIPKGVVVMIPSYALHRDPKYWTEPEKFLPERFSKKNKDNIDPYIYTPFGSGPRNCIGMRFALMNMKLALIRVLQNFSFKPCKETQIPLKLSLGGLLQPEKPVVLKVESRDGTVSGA

[4] = target: Cytochrome P450 2C9 (Homo sapiens, UniProt P11712); conditions: Potency
Sequence of Cytochrome P450 2C9 (P11712 whole entry): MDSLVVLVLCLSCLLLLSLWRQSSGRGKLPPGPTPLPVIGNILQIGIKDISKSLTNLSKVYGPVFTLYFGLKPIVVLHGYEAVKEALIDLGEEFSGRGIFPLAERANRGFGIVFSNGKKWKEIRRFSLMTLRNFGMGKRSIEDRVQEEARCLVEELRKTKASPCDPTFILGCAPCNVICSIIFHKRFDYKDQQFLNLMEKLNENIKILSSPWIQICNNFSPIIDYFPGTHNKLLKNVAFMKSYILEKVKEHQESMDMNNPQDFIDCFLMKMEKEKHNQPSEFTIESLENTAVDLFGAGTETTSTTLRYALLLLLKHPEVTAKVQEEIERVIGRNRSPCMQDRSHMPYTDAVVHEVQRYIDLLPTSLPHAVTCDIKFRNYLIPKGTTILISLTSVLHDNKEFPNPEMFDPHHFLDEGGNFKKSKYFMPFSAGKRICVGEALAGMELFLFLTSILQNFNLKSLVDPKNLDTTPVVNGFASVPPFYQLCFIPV

[5] = M. tuberculosis growth inhibition, HTS (AID 449762); type: functional
[6] = microbe, parasite or virus in culture; type: functional; conditions: Mycobacterium tuberculosis
[7] = THP-1 cell cytotoxicity, dose response, cytotoxicity control for non-replicating M. tuberculosis project (AID 489025); type: functional
[8] = cells; type: functional
[9] = target: T1, NADPH oxidase 1 (Homo sapiens, UniProt Q9Y5S8); assay: Late-stage luminescence-based cell-based dose response assay to identify inhibitors of NADPH oxidase 1 (NOX1): Synthesized analogs.; type: functional
T1 sequence (Q9Y5S8 whole entry): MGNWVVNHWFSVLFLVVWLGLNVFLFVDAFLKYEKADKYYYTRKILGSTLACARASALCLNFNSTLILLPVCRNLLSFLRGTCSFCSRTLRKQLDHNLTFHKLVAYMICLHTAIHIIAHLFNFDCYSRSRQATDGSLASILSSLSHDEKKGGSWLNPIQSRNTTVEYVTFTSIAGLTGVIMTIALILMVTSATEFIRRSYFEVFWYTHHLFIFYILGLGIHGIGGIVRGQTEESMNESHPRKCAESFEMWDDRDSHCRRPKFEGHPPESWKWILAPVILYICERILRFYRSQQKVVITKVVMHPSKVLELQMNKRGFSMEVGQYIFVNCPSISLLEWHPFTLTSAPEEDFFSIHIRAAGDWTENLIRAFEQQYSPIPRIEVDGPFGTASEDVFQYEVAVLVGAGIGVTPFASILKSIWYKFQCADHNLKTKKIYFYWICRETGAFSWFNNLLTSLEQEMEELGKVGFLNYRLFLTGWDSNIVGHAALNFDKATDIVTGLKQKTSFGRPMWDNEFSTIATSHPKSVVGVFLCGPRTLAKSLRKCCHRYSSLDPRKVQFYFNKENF

[10] = target: Hepatocyte nuclear factor 4-alpha (Homo sapiens, UniProt P41235); type: functional, cell-based;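 further: biochemical luminescence-based dose-response counterscreen measuring inhibition of HNF4 dimerization, run alongside a screen for blockers of ABHD5–perilipin-5 interaction; split luciferase complementation of HNF4 fusion proteins in cell lysate measuring dimerization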
Sequence of Hepatocyte nuclear factor 4-alpha (P41235 whole entry, the tested form may be a part): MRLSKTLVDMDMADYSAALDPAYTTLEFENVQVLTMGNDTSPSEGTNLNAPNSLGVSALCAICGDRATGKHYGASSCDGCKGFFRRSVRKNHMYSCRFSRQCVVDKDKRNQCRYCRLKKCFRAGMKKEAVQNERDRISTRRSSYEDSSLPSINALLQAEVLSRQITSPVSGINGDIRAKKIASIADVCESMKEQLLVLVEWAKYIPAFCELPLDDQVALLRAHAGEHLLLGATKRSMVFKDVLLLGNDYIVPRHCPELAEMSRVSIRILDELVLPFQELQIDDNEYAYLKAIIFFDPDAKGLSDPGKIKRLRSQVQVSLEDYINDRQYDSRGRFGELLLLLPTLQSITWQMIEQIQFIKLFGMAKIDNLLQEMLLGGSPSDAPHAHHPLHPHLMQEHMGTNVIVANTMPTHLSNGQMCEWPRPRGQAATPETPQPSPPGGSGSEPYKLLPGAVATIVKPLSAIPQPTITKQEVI

[11] = target: E3 ubiquitin-protein ligase Mdm2 (Homo sapiens, UniProt Q00987); assay: MDM2-luc reporter signal enhancers, multi-concentration potency testing, MDM2 ubiquitin-protein ligase inhibitor program, whole-cell format, luminescence detection, 384-well microplate (AID 1394); type: functional;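 further: MDM2 E3 inhibitors raise luminescence so EC50 is for signal enhancement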
Sequence of E3 ubiquitin-protein ligase Mdm2 (Q00987 whole entry): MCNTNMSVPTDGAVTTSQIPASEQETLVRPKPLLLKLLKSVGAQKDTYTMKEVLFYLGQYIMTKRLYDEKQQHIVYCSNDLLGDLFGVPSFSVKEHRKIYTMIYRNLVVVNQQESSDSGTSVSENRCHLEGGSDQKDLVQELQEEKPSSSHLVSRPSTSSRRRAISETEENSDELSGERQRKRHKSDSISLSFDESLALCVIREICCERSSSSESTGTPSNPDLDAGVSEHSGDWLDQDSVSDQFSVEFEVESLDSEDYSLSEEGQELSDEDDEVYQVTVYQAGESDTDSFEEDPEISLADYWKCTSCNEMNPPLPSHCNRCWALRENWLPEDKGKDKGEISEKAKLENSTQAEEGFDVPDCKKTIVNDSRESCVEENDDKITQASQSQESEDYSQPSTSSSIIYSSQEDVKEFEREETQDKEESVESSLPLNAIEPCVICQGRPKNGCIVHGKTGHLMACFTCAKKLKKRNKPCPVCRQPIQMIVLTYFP

[12] = target: G-protein coupled receptor 55 (Homo sapiens, UniProt Q9Y2T6); assay: selective activators of receptor GPR55 – imaging, U2OS cells, beta-arrestin-GFP redistribution, primary screen (AID 1961); type: functional
Sequence of G-protein coupled receptor 55 (Q9Y2T6 whole entry): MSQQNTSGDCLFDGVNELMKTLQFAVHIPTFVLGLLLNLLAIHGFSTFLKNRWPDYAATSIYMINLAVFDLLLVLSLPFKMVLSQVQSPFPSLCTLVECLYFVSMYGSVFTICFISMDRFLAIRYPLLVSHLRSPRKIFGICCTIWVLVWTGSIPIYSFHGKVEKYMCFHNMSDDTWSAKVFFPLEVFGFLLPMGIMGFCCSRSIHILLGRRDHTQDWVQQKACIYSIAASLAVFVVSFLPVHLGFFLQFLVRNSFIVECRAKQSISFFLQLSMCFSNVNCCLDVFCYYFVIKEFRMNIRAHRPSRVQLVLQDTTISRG

[13] = reduction of Shn3 3'UTR-driven luciferase in osteoblasts – cell-based, Clone20 osteoblasts, firefly luciferase, cherry-picked, dose response (AID 624132); type: functional;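 further: firefly luciferase luminescence from reporter carrying the Shn3 3'UTR in osteoblasts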
[14] = non-specific 3'UTR reporter inhibition in Clone20-Shn3RL – cell-based, Renilla luciferase, cherry-picked, counter-screen for Shn3 inhibitor project, dose response (AID 624133); type: functional
[15] = target: T2, Galanin receptor type 3 (Homo sapiens, UniProt O60755); assay: Fluorescence-based cell-based primary high throughput dose response assay to identify antagonists of the Galanin Receptor 3 (GalR3).; type: functional
T2 sequence (O60755 whole entry): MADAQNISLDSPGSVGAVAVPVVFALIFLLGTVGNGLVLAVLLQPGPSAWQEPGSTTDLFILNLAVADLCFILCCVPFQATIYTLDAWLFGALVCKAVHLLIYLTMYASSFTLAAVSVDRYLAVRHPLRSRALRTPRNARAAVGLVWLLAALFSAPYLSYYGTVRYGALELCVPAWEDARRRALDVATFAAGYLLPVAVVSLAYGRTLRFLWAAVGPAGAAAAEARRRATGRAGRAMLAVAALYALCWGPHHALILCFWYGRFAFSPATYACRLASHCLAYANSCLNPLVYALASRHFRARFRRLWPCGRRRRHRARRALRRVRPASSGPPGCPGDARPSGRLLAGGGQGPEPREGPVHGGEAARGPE

[16] = cells; type: functional, cell-based; conditions: HEK-CNG
[17] = target: Solute carrier family 12 member 2/member 5 (Homo sapiens, UniProt P55011+Q9H2X9); assay: KCC2 and NKCC1 inhibition by rubidium flux, cell-based, NKCC1 counter-screen (AID 1734); type: functional, HEK293
[18] = target: T3, Tyrosine-protein phosphatase non-receptor type 7 (Homo sapiens, UniProt P35236); assay: HePTP tyrosine phosphatase activity blockers – biochemical, absorbance, leukemia target, primary screen (AID 521); type: functional
T3 sequence (P35236 whole entry): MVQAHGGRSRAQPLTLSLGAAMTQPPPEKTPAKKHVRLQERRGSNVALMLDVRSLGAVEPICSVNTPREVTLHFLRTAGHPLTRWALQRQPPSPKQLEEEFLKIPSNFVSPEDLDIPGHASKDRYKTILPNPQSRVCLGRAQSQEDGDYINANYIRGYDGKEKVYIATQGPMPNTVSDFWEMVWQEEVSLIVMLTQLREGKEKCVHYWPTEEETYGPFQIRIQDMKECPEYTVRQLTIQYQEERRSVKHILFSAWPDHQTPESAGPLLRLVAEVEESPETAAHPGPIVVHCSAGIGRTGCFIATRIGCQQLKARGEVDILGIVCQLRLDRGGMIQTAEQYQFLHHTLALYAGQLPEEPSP

[19] = target: T1, NADPH oxidase 1; assay: Late-stage luminescence-based cell-based dose response assay to identify inhibitors of NADPH oxidase 1 (NOX1): Synthesized analogs 3.; type: functional
[20] = target: 14-3-3 protein gamma (Homo sapiens, UniProt P61981); assay: modulators of 14-3-3 gamma client binding – dose response (AID 711); type: functional
Sequence of 14-3-3 protein gamma (P61981 whole entry): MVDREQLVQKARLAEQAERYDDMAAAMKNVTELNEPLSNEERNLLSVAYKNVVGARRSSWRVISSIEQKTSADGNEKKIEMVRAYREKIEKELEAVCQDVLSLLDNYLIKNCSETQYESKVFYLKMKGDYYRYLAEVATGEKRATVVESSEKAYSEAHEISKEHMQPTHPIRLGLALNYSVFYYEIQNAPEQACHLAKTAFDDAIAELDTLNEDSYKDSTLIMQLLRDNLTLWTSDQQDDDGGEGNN

[21] = IC50 of insulin release inhibition, rat insulinoma INS-1E line, 5 mM glucose, cell-based (AID 1117331); type: functional
[22] = glucagon-like peptide-1 release potency in STC-1, concentration-response, half-maximal inhibitory concentration in the STC-1 line (AID 1117345); type: functional, cell-based
[23] = Potency on glucagon-like peptide 1 release, dose-response in NCI-H716 cell line, half maximal inhibitory concentration (AID 1117344); type: functional, cell-based
[24] = target: T4, Leucine aminopeptidase (Plasmodium falciparum 3D7, UniProt Q8IL11); assay: P. falciparum M17LAP inhibitors, primary screen, biochemical, fluorogenic H-Leu-NHMec substrate, 1536-well (AID 1619); type: functional
T4 sequence (Q8IL11 whole entry): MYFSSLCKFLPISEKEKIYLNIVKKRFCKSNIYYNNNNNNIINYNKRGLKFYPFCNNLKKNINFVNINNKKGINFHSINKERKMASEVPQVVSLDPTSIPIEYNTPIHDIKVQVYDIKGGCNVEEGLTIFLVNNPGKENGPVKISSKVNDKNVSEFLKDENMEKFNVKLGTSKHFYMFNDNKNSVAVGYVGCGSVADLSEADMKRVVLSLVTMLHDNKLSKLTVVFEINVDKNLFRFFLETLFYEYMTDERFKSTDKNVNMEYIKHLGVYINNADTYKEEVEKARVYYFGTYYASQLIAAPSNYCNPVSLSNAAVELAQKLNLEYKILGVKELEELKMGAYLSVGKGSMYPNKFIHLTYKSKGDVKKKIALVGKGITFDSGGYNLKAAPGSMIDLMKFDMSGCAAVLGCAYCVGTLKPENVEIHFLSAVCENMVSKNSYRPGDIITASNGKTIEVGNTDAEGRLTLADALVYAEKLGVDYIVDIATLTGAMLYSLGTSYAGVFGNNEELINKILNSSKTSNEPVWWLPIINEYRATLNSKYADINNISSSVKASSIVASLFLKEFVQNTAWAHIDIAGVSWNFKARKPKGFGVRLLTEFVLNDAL

[25] = target: T5, Rac GTPase-activating protein 1 (Homo sapiens, UniProt Q9H0H5); assay: blockers of MgcRacGAP-driven Rac1 GTP hydrolysis – biochemical, ADP Hunter fluorescence, primary and confirmatory, confirmation (AID 624330); type: functional
T5 sequence (Q9H0H5 whole entry): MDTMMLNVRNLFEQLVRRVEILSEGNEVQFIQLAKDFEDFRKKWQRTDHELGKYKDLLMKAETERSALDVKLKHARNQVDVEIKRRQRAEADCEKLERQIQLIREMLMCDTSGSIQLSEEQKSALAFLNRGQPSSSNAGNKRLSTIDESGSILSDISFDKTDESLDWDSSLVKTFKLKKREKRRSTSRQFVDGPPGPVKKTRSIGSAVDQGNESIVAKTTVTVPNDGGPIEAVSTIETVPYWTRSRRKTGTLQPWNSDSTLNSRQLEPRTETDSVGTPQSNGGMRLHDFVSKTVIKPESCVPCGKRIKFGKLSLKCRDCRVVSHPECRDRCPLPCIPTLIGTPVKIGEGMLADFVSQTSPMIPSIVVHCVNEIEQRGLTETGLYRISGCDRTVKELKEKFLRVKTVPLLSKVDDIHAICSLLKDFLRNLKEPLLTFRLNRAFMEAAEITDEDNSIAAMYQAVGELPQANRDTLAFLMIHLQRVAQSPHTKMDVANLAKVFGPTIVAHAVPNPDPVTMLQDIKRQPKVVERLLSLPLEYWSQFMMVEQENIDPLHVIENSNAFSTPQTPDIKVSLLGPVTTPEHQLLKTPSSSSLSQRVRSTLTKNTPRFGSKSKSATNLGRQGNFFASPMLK

[26] = HIV-1 Vif–A3G interaction blockers – biochemical, TR-FRET, GST-Vif 1-94, biotin-A3G peptide, dose response retest, primary screen (AID 1117319); type: functional;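 further: TR-FRET signal of purified GST-Vif binding a biotinylated A3G peptide; inhibitors lower the FRET signal by blocking Vif and A3G binding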
[27] = tested on: INS1; assay: INS-1E survival protection against cytokine death – cell-based, luminescence, retest, dose response (AID 449756); type: functional; conditions: Rattus norvegicus;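 further: cell death triggered by IL-1 beta plus TNF-alpha plus IFN-gamma mixture; protective hits raise ATP signal compared with cytokine alone wells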
[28] = tested on: P388/ADR; assay: cells; type: functional; conditions: Mus musculus
[29] = tested on: SN12K1; assay: cells; type: functional; conditions: Homo sapiens
[30] = tested on: P388; assay: cells; type: functional; conditions: Mus musculus
[31] = target: T6, Sentrin-specific protease 8 (Homo sapiens, UniProt Q96LD8); type: functional
T6 sequence (Q96LD8 whole entry): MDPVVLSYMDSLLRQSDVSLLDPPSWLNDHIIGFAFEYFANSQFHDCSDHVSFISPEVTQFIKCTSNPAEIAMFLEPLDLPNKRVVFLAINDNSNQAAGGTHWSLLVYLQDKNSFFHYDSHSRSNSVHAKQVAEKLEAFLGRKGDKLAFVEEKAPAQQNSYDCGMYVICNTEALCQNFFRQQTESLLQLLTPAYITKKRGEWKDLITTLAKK

[32] = target: T6, Sentrin-specific protease 8; type: functional; remark: listed apart in the source
[33] = target: T7, DNA repair protein RAD52 homolog (Homo sapiens, UniProt P43351); type: functional, biochemical
T7 sequence (P43351 whole entry): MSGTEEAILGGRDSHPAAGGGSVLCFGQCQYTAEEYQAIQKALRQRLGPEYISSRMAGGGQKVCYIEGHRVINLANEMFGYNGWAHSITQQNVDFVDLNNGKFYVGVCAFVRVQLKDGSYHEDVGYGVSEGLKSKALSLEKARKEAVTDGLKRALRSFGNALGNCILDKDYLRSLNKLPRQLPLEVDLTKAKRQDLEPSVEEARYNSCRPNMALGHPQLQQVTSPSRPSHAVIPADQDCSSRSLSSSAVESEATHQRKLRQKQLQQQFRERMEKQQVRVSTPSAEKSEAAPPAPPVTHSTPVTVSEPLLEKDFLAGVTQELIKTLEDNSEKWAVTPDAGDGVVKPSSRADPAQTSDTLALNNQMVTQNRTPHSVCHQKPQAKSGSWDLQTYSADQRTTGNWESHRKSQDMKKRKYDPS

[34] = rise of 2N DNA cells, HeLa – IC50, dose response (AID 1117349); type: functional, cell-based
[35] = rise of 4N DNA cells, HeLa – IC50, dose response (AID 1117351); type: functional, cell-based

Sequence of Cytochrome P450 2C19 (P33261 whole entry): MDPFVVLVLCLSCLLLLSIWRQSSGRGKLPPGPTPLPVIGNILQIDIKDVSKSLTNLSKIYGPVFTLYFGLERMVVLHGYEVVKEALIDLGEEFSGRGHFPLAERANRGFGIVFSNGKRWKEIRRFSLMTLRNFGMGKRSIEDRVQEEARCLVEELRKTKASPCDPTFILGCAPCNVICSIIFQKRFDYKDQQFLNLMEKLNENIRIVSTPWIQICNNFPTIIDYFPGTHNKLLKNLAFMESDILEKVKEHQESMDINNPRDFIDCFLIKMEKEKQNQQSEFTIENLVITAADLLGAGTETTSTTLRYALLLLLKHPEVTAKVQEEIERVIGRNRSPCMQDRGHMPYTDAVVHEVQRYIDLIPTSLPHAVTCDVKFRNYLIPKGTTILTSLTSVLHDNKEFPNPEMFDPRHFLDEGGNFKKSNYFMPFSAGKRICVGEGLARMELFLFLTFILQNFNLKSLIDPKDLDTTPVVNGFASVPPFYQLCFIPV

## O=c1c(O)c(-c2ccc(O)c(O)c2)oc2ccccc12
[1]
  AC50: 25.1 µM (inconclusive)
[2]
  AC50: 31.6 µM (inconclusive)
[3]
  AC50: 31.6 µM (inconclusive)
[4]
  AC50: 31.6 µM (inconclusive)

## CCCCNC(=O)Nc1nnc(-c2ccc(OCC)cc2)o1
[5]
  IC50: > 100 µM (active)
[6]
  CC50: > 40 µM (active)
[7]
  CC50: > 40 µM (active)
[8]
  IC50: 26.2 µM (active)

## C=CC(=O)N1c2ccccc2Sc2ccc(NC(=O)OCC)cc21
[9]
  IC50: > 50 µM (not active)
[10]
  IC50: 12.2 µM (inactive)

## COc1ccccc1-c1cc(C(F)(F)F)nc(S(=O)(=O)CCCC(=O)Nc2cccnc2Cl)n1
[11]
  EC50: 2 µM (not active)
[12]
  EC50: 2.94 µM (active)
[13]
  AC50: 10.6 µM (active)
[14]
  AC50: 13.1 µM (active)
[15]
  IC50: > 29.9 µM (inactive)
[16]
  EC50: > 29.9 µM (inactive)

## Cc1nc(CC(=O)Nc2nc(-c3ccccc3)cs2)cs1
[17]
  IC50: 79 µM (active)

## Cc1cc(C)cc(OCCCCCNCCO)c1
[18]
  IC50: > 100 µM (not active)

## CN1c2ccccc2Sc2cc(C(=O)c3ccc(N=[N+]=[N-])cc3)ccc21
[19]
  IC50: > 20 µM (not active)

## CCOC(=O)N1CCC(NC(=O)CSCc2nc(-c3ccc(OC)c(OC)c3)oc2C)CC1
[20]
  IC50: > 50 µM (not active)

## O=C(CBr)Nc1ccc(Cl)cc1C(=O)c1ccccc1F
[21]
  IC50: > 33.3 µM (inactive)
[22]
  IC50: > 40 µM (inactive)
[23]
  IC50: > 40 µM (inactive)

## COc1ccc2c(c1OC)C(=O)OC2CC(=O)c1ccc(O)c(O)c1 (stereo not given)
[24]
  IC50: 35.2 µM (active)
[25]
  IC50: 56.1 µM (active)
[26]
  IC50: > 100 µM (active)

## COc1ccc2cc3[n+](cc2c1OC)CCc1cc2c(cc1-3)OCO2 [BERBERINE CHLORIDE]
[27]
  AC50: 3.25 µM (active)
[28]
  GI50: 102 µM (inactive)
[29]
  GI50: 3.93 µM (inactive)
[30]
  GI50: 1.87 µM (inactive)
[31]
  IC50: > 100 µM (inactive)
[32]
  IC50: 7.66 µM (active)
[33]
  AC50: 2.38 µM (active) and 5.69 µM (active)
[34]
  IC50: > 10 µM (inactive)
[35]
  IC50: > 10 µM (inactive)

— ChEMBL document CHEMBL1201862, “PubChem BioAssay data set” (2004)
